Reference: patent US12508328B2, “Bio-activated reporters to visualize, in real time, specific gene therapy products” (Northwestern University, priority 2019, dated 2025)
Where two headings read alike, the source gives them in different places.

How the values were obtained:
[1] = Relaxivity (1.4 T) in MOPS and MOPS/CO3^2−; assay type: physicochemical; details: for Δr1 relative to the cleaved control product 11: intramolecular series 10a-d, 37° C.
Description: While measurements of q indicate how well an agent can restrict water access to the GdIII center, the most important property for a bio-activated contrast agent is the change in relaxivity upon enzymatic cleavage (r1). To evaluate the signal change in the presence of CO32−, relaxivities of the intermolecular activated agents were measured in two different buffer conditions, the non-coordinating buffer MOPS and MOPS/CO32−.
T1 relaxation times were obtained for 5a-c (FIG. 13), and complexes 10a-d (FIG. 14), and 11 at 37° C. at 60 MHz (1.4 T) on a Bruker mq60 minispec spectrometer (Billerica, MA). Three 1 mM solutions of each complex were prepared in four different buffer conditions 1) 10 mm 3-(N-morpholino)propanesulfonic acid (MOPS), 100 mm NaCl, pH 7.4, 2) 10 mm MOPS, 24 mm NaHCO3, 100 mm NaCl, pH 7.4, 3) Dulbecco's Phosphate Buffer (DPBS) pH 7.3 Life Technologies, and 4) b-galactosidase enzyme assay buffer, 200 mm sodium phosphate, 100 mm bmercaptoethanol, 2 mm MgCl2, pH 7.3 (FIG. 15). Three sets of five serial dilutions (about 1 mm, 0.5 mm, 0.25 mm, 0.125 mm and 0.0625 mm) were prepared for each complex. T1 relaxation rates were measured using an inversion recovery pule sequence (t1_ir_mb) with a 10 ms first pulse separation, recycle delay and final pulse separation ≥5 T1. T1 relaxation rates were plotted as a function of GdIII concentrations as determined by ICP-MS, r1/r2 was obtained from linear fit of concentration vs. T1 as described in Equation (1).

[2] = Complex stability measured by relaxivity (T1); assay type: physicochemical; details: for change in T1 over time (stability): 1 mM in enzyme buffer pH 7.3, over 140 hours; for change in T1 over time (stability) in cell culture media: over 140 hours
β-gal [3] = target: T1, β-gal (Escherichia coli, UniProt P00722); details: for T1 signal in the presence of β-gal compared with cleaved agent 11: 24 h incubation
T1 sequence (P00722 2-1024): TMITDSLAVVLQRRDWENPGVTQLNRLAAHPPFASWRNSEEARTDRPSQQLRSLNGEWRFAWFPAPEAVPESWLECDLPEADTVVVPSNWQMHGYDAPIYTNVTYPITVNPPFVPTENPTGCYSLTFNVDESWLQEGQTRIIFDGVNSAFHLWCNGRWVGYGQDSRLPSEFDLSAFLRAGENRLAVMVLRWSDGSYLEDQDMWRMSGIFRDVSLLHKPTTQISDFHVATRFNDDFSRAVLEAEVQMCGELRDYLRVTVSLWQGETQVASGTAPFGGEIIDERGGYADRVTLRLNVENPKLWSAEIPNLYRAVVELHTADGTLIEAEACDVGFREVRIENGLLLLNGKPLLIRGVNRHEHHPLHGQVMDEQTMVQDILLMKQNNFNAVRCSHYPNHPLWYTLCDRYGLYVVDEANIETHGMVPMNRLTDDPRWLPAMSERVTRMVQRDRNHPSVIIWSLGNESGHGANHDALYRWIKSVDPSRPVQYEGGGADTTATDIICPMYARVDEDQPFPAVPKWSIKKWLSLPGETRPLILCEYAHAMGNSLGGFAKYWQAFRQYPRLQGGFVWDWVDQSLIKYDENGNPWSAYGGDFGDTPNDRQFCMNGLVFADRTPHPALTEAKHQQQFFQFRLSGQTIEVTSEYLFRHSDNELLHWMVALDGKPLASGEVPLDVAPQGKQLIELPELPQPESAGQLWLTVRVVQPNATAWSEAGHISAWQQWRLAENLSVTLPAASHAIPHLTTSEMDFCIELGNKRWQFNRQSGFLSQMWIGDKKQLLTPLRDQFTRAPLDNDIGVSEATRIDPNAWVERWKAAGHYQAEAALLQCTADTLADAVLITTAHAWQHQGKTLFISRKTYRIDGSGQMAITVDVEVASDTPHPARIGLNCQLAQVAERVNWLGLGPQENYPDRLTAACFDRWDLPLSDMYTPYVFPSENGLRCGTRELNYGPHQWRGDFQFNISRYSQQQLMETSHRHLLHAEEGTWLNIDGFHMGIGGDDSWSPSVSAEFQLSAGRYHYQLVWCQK
Description: MR images were acquired on a Bruker Pharmscan 7 T imaging spectrometer fitted with shielded gradient coils at 25° C. Image analysis was carried out using Paravision 5.0 p13 software (Bruker, Billerica, MA, USA) with monoexponential curve-fitting of image intensities of selected regions of interest (ROIs) for each axial slice. […] Exact Gd(III) concentration was verified by ICP-MS. Either 10 μL of enzyme stock solution (50% enzyme assay buffer, 50% glycerol, at 521 U/mL β-gal) or 10 μL of a 50% enzyme assay buffer/50% glycerol solution (used as a control) were added to a 190 μL aliquot of each complex. After this addition, the final concentration of each complex was 475 μM, with 26.1 U/mL of β-gal. The solutions were incubated at 37° C. for 24 hours, then aliquoted to 5, ¾″ flame-sealed Pasteur pipets. The bottom sections of the flame-sealed pipets were then scored with a glass scribe, broken into small capillaries, and imaged using a RF RES 300 1H 089/023 quadrature transmit receive 23 mm volume coil (Bruker BioSpin, Billerica, MA, USA). T1 relaxation times were measured using a rapid-acquisition rapid-echo RARE-VTR T1-map pulse sequence with the following imaging parameters: TE (11.0 ms), TR (500.0 ms), field of view (FOV)=25×25 mm2, matrix size (MTX)=256×256, number of axial slices=5, slice thickness (SI)=1.0 mm, and averages (NEX)=3, and total scan time was 2:36:57. T2 values were measured using a multislice multiecho (MSME) T2-map pulse sequence, with static TR (5000 ms) and 32 fitted echoes in 11 ms intervals (11, 22, . . . , 352 ms). Imaging parameters were as follows: FOV=25×25 mm2, MTX=256×256, number of axial slices=4, SI=1.0 mm, NEX=3, and a total scan time=48 min. T1 images and times can be found in FIG. 14 and T2 maps and times can be found in FIG. 18.

[4] = Terbium(III) luminescence: determination of q; assay type: physicochemical; details: 10a′-d′, Horrock's equation; MOPS/CO3^2− buffer pH 7.4
Description: The q number in the absence and presence of CO32− was determined using TbIII analogues (5a′, 5b′, 5c′, and 11′). Given the similarities in chemistry amongst the lanthanides, TbIII luminescence is a convenient and established method for determining the coordination environment in corresponding GdIII chelates. The narrow […] emission at 543 nm and the relatively long lived 0.4 ms excited state lifetime for Tb(H2O)x facilitates accurate assessment of the inner-coordination sphere, differentiating between coordination of OH, OD, NH, and ND oscillators. 38 Luminescent decay curves were fit to the empirically derived Horrock's equation (Eq. 2). It was expected that the ortho position would have the lowest q in the presence of CO32−, creating a “dark” state with the lowest relaxivity.
The number of water molecules directly coordinated to the lanthanide center (q), was determined for each of the TbIII analogues 5a′-c′ (see Table 1), 10a′-d′ (Table 2), and 11′ in MilliQ water and MOPS/carbonate buffer (10 mm MOPS, 24 mm NaHCO3, pH 7.4).
The monoexponential fluorescence decay of an ≈1 mm solution of each complex was determined using a Hitachi F4500 fluorometer (Schaumburg, IL). An excitation wavelength of 308 nm and an emission wavelength of […] were used, and 25 scans were acquired and averaged for each solution. The averaged data was fit with a monoexponential decay function, and the time constant (t) for each solution was determined in triplicate. The fluorescence decay curves of the complexes were measured in both H2O and D2O, and in both buffer and deuterated buffer, obtained by lyophilizing and re-suspending the buffer in D2O three times (FIG. 17A-E). The q values were calculated using the empirically derived Horrock's equation for Tb(III) (Eq. 2): […]

β-gal [5] = target: T1, β-gal; details: dark to bright
Description: The acetate arm is attached to an amine present in the linker between the macrocycle and the galactopyranose substrate.

β-gal enzyme (lacZ) = details: for MR signal enhancement in lacZ-expressing mice, 1 h post injection: 9.4 T T1 weighted FLASH
Description: In vivo MR Imaging (9.4 T) Hemizygous transgenic mice (n=2) constitutively expressing the lacZ gene that encodes the β-gal enzyme (strain ROSA26-lacZ) were purchased from The Jackson Laboratory (Bar Harbor, ME). A non-transgenic littermate was used as a control. […] Mice were imaged with MRI at baseline, and 1, 4, and 24 hours post injection.
MRI was performed on a 9.4T Bruker Biospec MRI system with a 30 cm bore, a 12 cm gradient insert, and an Autopac automated sample positioning system (Bruker Biospin Inc, Billerica, MA). Animals were anesthetized in an induction chamber with 3% isoflurane and transferred to a dedicated imaging bed with isoflurane delivered via nosecone at 1-2%. Respiratory signals were monitored using an MR-compatible physiologic monitoring system (SA Instruments, Stonybrook, NY) and a warm water circulating system was used to maintain body temperature. Animals were placed in the prone position and a quadrature radiofrequency coil with inner diameter 40 mm was mounted on the bed. Mice were imaged using a FLASH gradient echo sequence using the following parameters: TR/TE/α=100 ms/2.2 ms/45°, MTX=192×192, FOV 4×4 cm, 9 slices of 1 mm thick, 0.3 mm slice gap, and 1 signal average.

[6] = cited from earlier work
[7] = cited from earlier work; for link to nephrogenic systemic fibrosis (NSF): clinical use
[8] = IP 200 microliters of 40 mM, 9.4 T
[9] = intravenous, two-compartment open-model

## CCOC(=O)CNc1cc(COC(=O)NCCN2CCN(CC(=O)[O-])CCN(CC(=O)[O-])CCN(CC(=O)[O-])CC2)ccc1O[C@@H]1O[C@H](CO)[C@H](O)[C@H](O)[C@H]1O.[Gd+3] [10a, Gadolinium(III)-1-(4-(2-(1-(4,7,10-triscarboxymethyl-(1,4,7,10tetraazacyclododecyl)))ethylcarbamoyloxymethyl)-2-((2-ethoxy-2-oxoethyl)amino)phenyl)-β-D-galactopyranose]
[1]; 10a-d
  relaxivity within the intramolecular series: highest relativity of the series
[1]
  Δr1 relative to the cleaved control product 11: negative
[2]
  change in T1 over time (stability): No significant change in T1

## CCOC(=O)CCCNc1cc(COC(=O)NCCN2CCN(CC(=O)[O-])CCN(CC(=O)[O-])CCN(CC(=O)[O-])CC2)ccc1O[C@@H]1O[C@H](CO)[C@H](O)[C@H](O)[C@H]1O.[Gd+3] [10b, Gadolinium(III)-1-(4-(2-(1-(4,7,10-triscarboxymethyl-(1,4,7,10tetraazacyclododecyl)))ethylcarbamoyloxymethyl)-2-((4-ethoxy-4-oxobutyl)amino)phenyl)-β-D-galactopyranose]
[1]; 10a-d, MOPS
  Δr1 in MOPS: largest
[1]
  Δr1 relative to the cleaved control product 11: positive
[2]
  change in T1 over time (stability): No significant change in T1
β-gal [3]; 7 T T1 solution phantoms
  change in MR contrast +/−β-gal: greatest change in MR contrast
β-gal [3]; 7 T solution phantoms
  T1 signal in the presence of β-gal compared with cleaved agent 11: does not appear to fully activate
β-gal [3]; 7 T solution phantoms, assay buffer, 24 h, +β-gal 26.1 U/mL
  T1: 378 ms

## CCOC(=O)CCCCCNc1cc(COC(=O)NCCN2CCN(CC(=O)[O-])CCN(CC(=O)[O-])CCN(CC(=O)[O-])CC2)ccc1O[C@@H]1O[C@H](CO)[C@H](O)[C@H](O)[C@H]1O.[Gd+3] [10c, Gadolinium(III)-1-(4-(2-(1-(4,7,10-triscarboxymethyl-(1,4,7,10tetraazacyclododecyl)))ethylcarbamoyloxymethyl)-2-((6-ethoxy-6-oxohexyl)amino)phenyl)-β-D-galactopyranose]
[1]; 10a-d, MOPS/CO3^2−
  change in signal in the presence of CO3^2−: highest overall change in signal
[1]
  Δr1 relative to the cleaved control product 11: 20%
[2]
  change in T1 over time (stability): No significant change in T1
  change in T1 over time (stability) in cell culture media: No significant change in T1
β-gal [3]; 7 T solution phantoms
  T1 signal in the presence of β-gal compared with cleaved agent 11: approximately the same
β-gal [3]; at both 1.4 and 7 T
  change in relaxivity: positive
[4]
  q (buffer): 0.1
β-gal [5]
  change in relaxivity when exposed to β-gal (post enzyme cleavage): 90%
β-gal enzyme (lacZ); [8]
  MR signal enhancement in lacZ-expressing mice, 4 hrs post injection: signal enhancement was present but at a reduced level
  MR signal enhancement in non-transgenic control mice: No signal enhancement was observed
β-gal enzyme (lacZ); IP 200 microliters of 40 mM
  MR signal enhancement in lacZ-expressing mice, 1 h post injection: Global signal enhancement was observed
β-gal enzyme (lacZ); IP 200 microliters of 40 mM, listed as complex 3
  MR signal enhancement in lacZ-expressing mice, 1 h post injection: Global signal enhancement was observed
β-gal enzyme (lacZ); IP 200 microliters of 40 mM, listed as β-galactosidase responsive agent
  MR signal enhancement in lacZ-expressing mice, 1 h post injection: Signal enhancement was noted in the liver and kidneys
β-gal enzyme (lacZ); IP 200 microliters of 40 mM, 9.4 T, listed as complex 3
  MR signal enhancement in non-transgenic control mice: No signal enhancement was observed
β-gal enzyme (lacZ); IP 200 microliters of 40 mM, 9.4 T, listed as β-galactosidase responsive agent
  MR signal enhancement in non-transgenic control mice: minimal
β-gal enzyme (lacZ); LacZ mice, IP injection
  time for MR signal to return to baseline: ≤ 24 h
β-gal enzyme (lacZ); bladder very bright at 4 hour time point in one LacZ mouse
  route of clearance: cleared renally

## CCOC(=O)CCCCCCCNc1cc(COC(=O)NCCN2CCN(CC(=O)[O-])CCN(CC(=O)[O-])CCN(CC(=O)[O-])CC2)ccc1O[C@@H]1O[C@H](CO)[C@H](O)[C@H](O)[C@H]1O.[Gd+3] [10d, Gadolinium(III)-1-(4-(2-(1-(4,7,10-triscarboxymethyl-(1,4,7,10tetraazacyclododecyl)))ethylcarbamoyloxymethyl)-2-((8-ethoxy-8-oxooctyl)amino)phenyl)-β-D-galactopyranose]
[1]
  Δr1 relative to the cleaved control product 11: negative
[2]
  change in T1 over time (stability): No significant change in T1
  change in T1 over time (stability) in cell culture media: No significant change in T1
β-gal [3]; 7 T solution phantoms
  T1 signal in the presence of β-gal compared with cleaved agent 11: approximately the same

## CNC[C@H](O)[C@@H](O)[C@H](O)[C@H](O)CO.CNC[C@H](O)[C@@H](O)[C@H](O)[C@H](O)CO.O=C([O-])CN(CCN(CC(=O)[O-])CC(=O)O)CCN(CC(=O)[O-])CC(=O)O.[Gd+3] [Magnevist, gadopentate dimeglumine]
[6]; equal to the extracellular space
  volume of distribution: ~266 mL/kg
[6]; in vivo
  binding to human serum protein: has not been shown to bind
[6]; [9]
  distribution half-life: 12 min
  elimination half-life: 1.6 h
[6]; intravenous
  dose excreted in the urine by 24 hours: 91%
  dose excreted in the urine within 6 hours: ~83%
[7]
  link to nephrogenic systemic fibrosis (NSF): associated with the onset of NSF
[7]; intrathecal
  dose shown to enhance after intrathecal contrast delivery: 0.004 mmol/kg
[7]; intravenous delivery
  safe dose in preclinical safety studies: 50 × the normal dose

## CNC(=O)CN(CCN(CCN(CC(=O)[O-])CC(=O)NC)CC(=O)[O-])CC(=O)[O-].[Gd+3] [Omniscan]
[7]
  link to nephrogenic systemic fibrosis (NSF): associated with the onset of NSF
